Laboratory results reported in patent publication US10675293B2, “Nucleoside agents for the reduction of the deleterious activity of extended nucleotide repeat containing genes” (The Board of Trustees of the Leland Stanford Junior …, priority 2015, dated 2020).
“Also recorded” adds a separate entry of the source.

What was measured:
wild-type Htt gene = test: RT-PCR of Htt mRNA in Hdh Q7/Q7 striatal cells; format: cell-based, mouse; conditions: compared to mock control
Procedure: (§1) Tet-on HeLa cells (Clontech Laboratories), and stable line 2-PN4 and 21-VS were cultured in DMEM (Gibco) supplemented with 10% Tet-off fetal bovine serum (Gibco) at 37° C. with 5% CO2. Hdh Q7/Q7 (mouse), Hdh Q111/Q111 (mouse) were cultured in DMEM (HyClone) supplemented with 10% fetal bovine serum at 33° C. with 5% C02.
(§2) Total RNA was extracted from murine neuronal cells using TRI Reagent (Sigma). For cDNA conversion, 2 μg of total RNA was mixed with 5 μM random primer, 5 μM SnRNA U6 rt-PCR primer and 500 μM dNTPs, incubated at 65° C. for 5 min and then chilled on ice. After addition of First-Strand Buffer, DTT (Cf=10 mM) and 1 μl reverse transcriptase (Invitrogen), the reaction was carried out at 42° C. for 1 hr. Equal volumes of cDNA products were PCR amplified and resolved on 2.5% agarose gels to determine the abundance of Htt transcripts after normalization with U6 or 18S ribosomal RNA.

[1] = molecular target: T1, Supt4h-YC / Supt5h NGN-YN interaction (Homo sapiens, UniProt O00267+P63272); test: Bimolecular fluorescence complementation (BiFC) assay in 2-PN4 stable cells; format: cell-based; conditions: 24 hr with Doxycycline 4 μg/ml
T1 construct: NGN-YN is a genetic engineered protein in which Supt5h NGN domain is fused to YFP YN; expressed in transfected cells
Procedure: Human Supt4h and Supt5hNGN were fused in-frame with the YC and YN respectively. The YN and YC represent the N- and C-terminal domain of yellow fluorescent protein Venus. To prevent a change in protein folding caused by the conjugation of two polypeptides (Kerppola, “Design and implementation of bimolecular fluorescence complementation (BiFC) assays for the visualization of protein interactions in living cells,” Nature protocols (2006) 1:1278-1286), a protein linker containing additional 10 amino acid residues was included in the fusion protein. Also, extra amino acids GSHM were incorporated into the Supt5hNGN to increase its protein stability (Wenzel et al., “Crystal structure of the human transcription elongation factor DSIF hSpt4 subunit in complex with the hSpt5 dimerization interface,” The Biochemical journal (2010) 425:373-380). Supt4h, NGN, YC, and YN were amplified by PCR to generate DNA fragments containing the nucleotide sequence of protein linker. Supt4h and NGN PCR products then were mixed with the PCR product of YN or YC for secondary overlapping PCR. Finally, the resulting Supt4h-YC and NGN-YN DNA fragment was cloned into plasmid vector pcDNA3-HA and pFLAG-CMV-2 respectively.
Tet-on HeLa cells were transfected with linearized pTRE-HA-Supt4h-VC-Flag-NGN-VN plasmid construct using LipofectAMINE 2000 (Invitrogen). After transfection, cells were cultured initially in growth medium containing puromycin (1 μg/ml) and then selected for clones that show YFP fluorescence in the presence of tetracycline (4 μg/ml). The stable line having the strongest fluorescence signal was isolated and designated as 2-PN4. Likewise, 21-VS stable line was created using pTRE-HA-Venus.
Stable lines 2-PN4 and 21-VS were pre-cultured in 6-well plates, followed by an incubation of Doxycycline (4 μg/ml) together with various concentrations of chemical compounds for 24 hr. Cells were washed with PBS (Sigma) and monitored by microscope (20× magnification). Photos were taken using Nikon D500 camera with a setting of ISO 1600, shutter 1/200 for the light images, and shutter ½ for the fluorescence images. For quantification of fluorescence intensity, 5 photos with similar cell number were taken and the fluorescence signal was measured by Metamorph software individually. The average of overall fluorescence signal was determined and compared to the one observed in DMSO-treated control sample.
For the purpose of high-throughput drug screening, based on the BiFC method as mentioned above, we have created a stable cell line that co-expresses NGN-YN and Supt4h-YC under the control of a tet-on inducible promoter. […] If the complementation that is driven by NGN and Supt4h interaction is inhibited by a given test compound, the de novo YFP fluorescence signal is affected. […]

[2] = molecular target: T2, Supt4h-YC / NGN-YN complex (Homo sapiens, UniProt O00267+P63272); test: Co-immunoprecipitation of HA-Supt4h-YC with Flag-NGN-YN from 2-PN4 cells; format: cell-based; conditions: 20 μM, 36 hr, immunoprecipitation with anti-HA
T2 construct: NGN-YN is a genetic engineered protein in which Supt5h NGN domain is fused to YFP YN; expressed in transfected cells
Procedure: 2-PN4 cells, following a treatment of 6CR (Cf=20 μM) for 36 hr, were lysed with modified RIPA buffer (50 mM Tris-HCl [pH 7.5], 150 mM NaCl, 1% NP-40, 1% sodium deoxycholate), supplement with 1 mM Na3VO4, 1 mM DTT, 1 mM PMSF and protease inhibitor cocktail (Sigma). The collected protein lysates (1 mg) were diluted with modified RIPA buffer to a final volume of 0.5 ml and then incubated with anti-HA antibodies (1 μg) overnight. Following incubation with protein A agarose beads (Millipore) for another 6 hr, the beads were washed twice with modified RIPA buffer containing 20 μM 6CR. All of these performances were carried out at 4° C. For detection of proteins that coprecipitated with HA-Supt4h-YC, the immunocomplex was fractionated by SDS-PAGE, followed by Western blotting analysis with anti-HA and anti-FLAG antibodies.

21-VS cells (HA-Venus) = test: Control fluorescence of 21-VS stable cells expressing intact Venus; format: cell-based; conditions: same experimental conditions as 2-PN4 cells
Procedure: The HA-Supt4h-YC and FLAG-NGN-YN fragments were amplified by PCR using plasmid constructs described above and sub-cloned individually into the pTRE-tight-BI vector (Clontech Laboratories), which contain a bi-directional CMV promoter under the control of tetracycline. The coding sequence of yellow fluorescence protein Venus with a HA-epitope in its N-terminus was PCR-amplified and cloned into the vector to generate pTRE-HA-Venus.
Tet-on HeLa cells were transfected with linearized pTRE-HA-Supt4h-VC-Flag-NGN-VN plasmid construct using LipofectAMINE 2000 (Invitrogen). After transfection, cells were cultured initially in growth medium containing puromycin (1 μg/ml) and then selected for clones that show YFP fluorescence in the presence of tetracycline (4 μg/ml). The stable line having the strongest fluorescence signal was isolated and designated as 2-PN4. […]
Stable lines 2-PN4 and 21-VS were pre-cultured in 6-well plates, followed by an incubation of Doxycycline (4 μg/ml) together with various concentrations of chemical compounds for 24 hr. Cells were washed with PBS (Sigma) and monitored by microscope (20× magnification). Photos were taken using Nikon D500 camera with a setting of ISO 1600, shutter 1/200 for the light images, and shutter ½ for the fluorescence images. […] The average of overall fluorescence signal was determined and compared to the one observed in DMSO-treated control sample. […]

[3] = tested on: Supt4h-YC and NGN-YN protein expression; test: Western blot of Supt4h-YC and NGN-YN protein levels in 2-PN4 cells; format: cell-based, human
Procedure: As described (Liu et al., “Spt4 is selectively required for transcription of extended trinucleotide repeats,” Cell (2012) 148:690-701), equal amounts of protein were resolved by electrophoresis on 12% sodium dodecyl sulfate (SDS)-polyacrylamide gels, and transferred onto nitrocellulose membranes (nitrocellulose, Waterman 0.45 μM, NBA085C). After blocking with 5% low-fat milk in Tris-buffer saline containing 0.1% Tween-20, membranes were probed with primary antibodies, incubated with a horseradish peroxidase (HRP)-conjugated secondary antibody, and detected by ECL reagent (enhanced chemiluminescence, PerkinElmer).

mutant Htt gene = test: RT-PCR of Htt mRNA in Hdh Q111/Q111 striatal cells; format: cell-based, mouse; conditions: compared to mock control
Procedure: as §1, §2

[4] = tested on: mutant Huntingtin protein; test: Western blot of mutant HTT in Huntington's disease patient iPSC ND36999; format: cell-based, human; conditions: iPSC with 180 CAG repeats, 24 hr
Procedure: (§3) Cell samples were lysed in 30 mM Tris-HCl, pH 8.0, 5 mM NaCl, 0.1% Triton X-100 for 10 min on ice. The supernatants from spinning (14 k rpm for 10 min) were collected. The protein concentrations were determined by BCA assay (Pierce, ThermoFisher). Equal amounts of protein were loaded onto 4-12% gel. After electrophoresis, the gels were transferred to nitrocellulose membranes by wet transfer at 35V for 16 hr. The protein level of mutant HTT, total HTT and tubulin were determined by immunoblotting with anti-poly Glutamine (MAB1574 from Millipore), anti-Huntingtin protein (MAB2166 from Millipore) and anti-alpha tubulin (AJ1034a from ABGENT). Blots were imaged on a Li-Cor Odyssey infrared imager. The bands intensities were determined by Li-Cor Odyssey software.
(§4) To test whether the nucleoside 6-Azauridine (HD101) and (−)-6-Azauridine 2′,3′,5′-triacetate (HD106) can affect the expression of proteins with long polyQ domains, one iPSC (induced pluripotent stem cell) line ND36999, which was derived from a Huntington's disease patient who carries one allele of mutant htt gene with 180 CAG repeats, was purchased from the Coriell Institute. The iPSCs were plated into a 24-well plate coated with Matrigel. […] Cells were lysed and the protein concentrations were determined by BCA assay. […] The image (FIG. 10) was taken and the quantification was made by Li-Cor Odyssey imaging system.

total Huntingtin protein = test: Western blot of total HTT in Huntington's disease patient iPSC ND36999; format: cell-based, human; conditions: iPSC with 180 CAG repeats, 24 hr
Procedure: as §3, §4

SMILES	Htt mRNA in cells with homozygous wild-type Htt allele (wild-type Htt gene)	fluorescence intensity of 2-PN4 cells relative to control sample ([1]; 10 μM)	BiFC fluorescence signal of 2-PN4 cells ([1]; various concentrations)	complex formation of Supt4h-YC and NGN-YN [2]	fluorescence signal of 21-VS cells (21-VS cells (HA-Venus))	protein expression of Supt4h-YC and NGN-YN [3]	Htt mRNA transcribed from mutant allele (mutant Htt gene)	mutant Huntingtin protein level [4]	total Huntingtin protein expression level (total Huntingtin protein)
OC[C@H]1O[C@@H](n2cnc3c(Cl)ncnc32)C(O)C1O (stereo partly drawn) [6CR, 6-Chloropurine riboside]	not detectable	decreased to half of control sample	reduces the fluorescence signal of 2-PN4 cells in a concentration-dependent manner; also recorded: inhibits Supt4h-YC and NGN-YN interaction	lower the complex formation	not altered	does not interfere with the protein expression	down-regulated; also recorded: reduces the expression of mutant Htt gene	–	–
CC(=O)OC[C@H]1O[C@@H](n2ncc(=O)[nH]c2=O)[C@H](OC(C)=O)[C@@H]1OC(C)=O [HD106, (−)—6-Azauridine 2′,3′,5′-Triacetate]	–	–	–	–	–	–	–	preferentially decrease mutant Huntingtin protein in a dose dependent manner; also recorded: reduced mutant huntingtin expression in a dose dependent manner	little effect
